Source: ChEMBL document CHEMBL5634161, “Discovery of benzamide-based PI3K/HDAC dual inhibitors with marked pro-apoptosis activity in lymphoma cells” (Eur J Med Chem, 2023)
The source made the active and inactive calls. The rule behind the calls is not given here.

Key:
[1] = biological target: Phosphatidylinositol 4,5-bisphosphate 3-kinase catalytic subunit beta isoform (Homo sapiens, UniProt P42338); assay: Inhibition of PI3Kbeta (unknown origin) using PIP2 as substrate incubated for 1 hrs in presence of ATP by ADP-Glo kinase assay
CYP1A2 = CYP1A2 (Homo sapiens, UniProt P05177); assay: Inhibition of CYP1A2 in human liver microsomes using phenacetin as substrate at 10 uM in presence of NADPH regenerating system by LC-MS/MS analysis relative to control; format: ADME, Microsome; settings: probe phenacetin
[2] = biological target: Phosphatidylinositol 4,5-bisphosphate 3-kinase catalytic subunit alpha isoform (Homo sapiens, UniProt P42336); assay: Inhibition of PI3Kalpha (unknown origin) using PIP2 as substrate incubated for 1 hrs in presence of ATP by ADP-Glo kinase assay
Histone deacetylase 2 = Histone deacetylase 2 (Homo sapiens, UniProt Q92769); assay: Inhibition of HDAC2 (unknown origin) using Boc-Lys(acetyl)-AMC as substrate preincubated for 1 hrs followed by substrate addition and measured after 2 hrs by spectrophotometer based fluorometric assay
Histone deacetylase 3 = Histone deacetylase 3 (Homo sapiens, UniProt O15379); assay: Inhibition of HDAC3 (unknown origin) using Boc-Lys(acetyl)-AMC as substrate preincubated for 1 hrs followed by substrate addition and measured after 2 hrs by spectrophotometer based fluorometric assay
Histone deacetylase 5 = Histone deacetylase 5 (Homo sapiens, UniProt Q9UQL6); assay: Inhibition of HDAC5 (unknown origin) using Boc-Lys(acetyl)-AMC as substrate preincubated for 1 hrs followed by substrate addition and measured after 2 hrs by spectrophotometer based fluorometric assay
Histone deacetylase 7 = Histone deacetylase 7 (Homo sapiens, UniProt Q8WUI4); assay: Inhibition of HDAC7 (unknown origin) using Boc-Lys(acetyl)-AMC as substrate preincubated for 1 hrs followed by substrate addition and measured after 2 hrs by spectrophotometer based fluorometric assay
Histone deacetylase 7, sequence (Q8WUI4 whole entry): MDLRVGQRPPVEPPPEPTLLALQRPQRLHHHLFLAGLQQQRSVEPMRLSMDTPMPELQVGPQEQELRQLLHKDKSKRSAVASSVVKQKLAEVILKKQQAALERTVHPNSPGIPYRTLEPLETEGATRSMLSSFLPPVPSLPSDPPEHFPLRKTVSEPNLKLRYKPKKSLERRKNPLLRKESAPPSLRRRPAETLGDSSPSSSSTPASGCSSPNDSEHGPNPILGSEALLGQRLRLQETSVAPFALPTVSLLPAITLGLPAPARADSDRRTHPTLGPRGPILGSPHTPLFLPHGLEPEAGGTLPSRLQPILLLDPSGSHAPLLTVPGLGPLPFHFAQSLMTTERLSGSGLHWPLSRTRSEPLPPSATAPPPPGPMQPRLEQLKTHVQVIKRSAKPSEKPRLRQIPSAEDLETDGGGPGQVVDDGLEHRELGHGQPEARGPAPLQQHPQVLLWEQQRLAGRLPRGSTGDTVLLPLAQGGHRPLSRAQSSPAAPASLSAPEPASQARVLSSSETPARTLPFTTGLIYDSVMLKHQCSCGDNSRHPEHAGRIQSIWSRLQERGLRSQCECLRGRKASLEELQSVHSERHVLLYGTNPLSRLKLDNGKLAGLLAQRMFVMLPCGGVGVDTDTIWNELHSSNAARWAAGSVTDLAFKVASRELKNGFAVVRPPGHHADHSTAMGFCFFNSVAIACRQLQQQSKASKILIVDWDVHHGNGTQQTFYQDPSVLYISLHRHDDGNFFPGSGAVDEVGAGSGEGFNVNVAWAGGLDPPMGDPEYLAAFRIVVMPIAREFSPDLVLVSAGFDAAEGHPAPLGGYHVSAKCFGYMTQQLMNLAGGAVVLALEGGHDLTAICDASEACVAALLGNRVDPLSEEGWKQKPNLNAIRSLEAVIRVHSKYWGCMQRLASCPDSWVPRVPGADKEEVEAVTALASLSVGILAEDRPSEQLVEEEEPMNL

Histone deacetylase 8 = Histone deacetylase 8 (Homo sapiens, UniProt Q9BY41); assay: Inhibition of HDAC8 (unknown origin) using Boc-Lys(acetyl)-AMC as substrate preincubated for 1 hrs followed by substrate addition and measured after 2 hrs by spectrophotometer based fluorometric assay
[3] = biological target: Polyamine deacetylase HDAC10 (Homo sapiens, UniProt Q969S8); assay: Inhibition of HDAC10 (unknown origin) using Boc-Lys(acetyl)-AMC as substrate preincubated for 1 hrs followed by substrate addition and measured after 2 hrs by spectrophotometer based fluorometric assay
Polyamine deacetylase HDAC10, sequence (Q969S8 whole entry, canonical isoform): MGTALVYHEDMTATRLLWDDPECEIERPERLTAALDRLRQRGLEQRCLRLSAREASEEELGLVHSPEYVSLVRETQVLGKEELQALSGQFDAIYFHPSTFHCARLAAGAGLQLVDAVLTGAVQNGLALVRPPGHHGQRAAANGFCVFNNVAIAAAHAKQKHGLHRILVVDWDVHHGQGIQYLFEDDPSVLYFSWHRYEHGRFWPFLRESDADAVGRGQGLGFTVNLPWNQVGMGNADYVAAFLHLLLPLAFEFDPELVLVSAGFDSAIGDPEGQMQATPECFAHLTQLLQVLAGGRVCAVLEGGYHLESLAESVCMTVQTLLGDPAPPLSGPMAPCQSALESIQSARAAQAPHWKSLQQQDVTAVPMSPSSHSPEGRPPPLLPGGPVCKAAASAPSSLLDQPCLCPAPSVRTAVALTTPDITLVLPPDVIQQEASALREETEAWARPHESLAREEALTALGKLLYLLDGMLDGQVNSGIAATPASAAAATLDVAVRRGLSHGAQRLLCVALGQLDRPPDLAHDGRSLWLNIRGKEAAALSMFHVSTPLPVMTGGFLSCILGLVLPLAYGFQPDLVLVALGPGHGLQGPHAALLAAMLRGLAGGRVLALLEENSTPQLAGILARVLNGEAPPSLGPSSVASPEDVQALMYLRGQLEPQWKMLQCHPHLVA

[4] = biological target: Phosphatidylinositol 4,5-bisphosphate 3-kinase catalytic subunit delta isoform (Homo sapiens, UniProt O00329); assay: Inhibition of PI3Kdelta (unknown origin) using PIP2 as substrate incubated for 1 hrs in presence of ATP by ADP-Glo kinase assay
Phosphatidylinositol 4,5-bisphosphate 3-kinase catalytic subunit delta isoform, sequence (O00329 whole entry, canonical isoform): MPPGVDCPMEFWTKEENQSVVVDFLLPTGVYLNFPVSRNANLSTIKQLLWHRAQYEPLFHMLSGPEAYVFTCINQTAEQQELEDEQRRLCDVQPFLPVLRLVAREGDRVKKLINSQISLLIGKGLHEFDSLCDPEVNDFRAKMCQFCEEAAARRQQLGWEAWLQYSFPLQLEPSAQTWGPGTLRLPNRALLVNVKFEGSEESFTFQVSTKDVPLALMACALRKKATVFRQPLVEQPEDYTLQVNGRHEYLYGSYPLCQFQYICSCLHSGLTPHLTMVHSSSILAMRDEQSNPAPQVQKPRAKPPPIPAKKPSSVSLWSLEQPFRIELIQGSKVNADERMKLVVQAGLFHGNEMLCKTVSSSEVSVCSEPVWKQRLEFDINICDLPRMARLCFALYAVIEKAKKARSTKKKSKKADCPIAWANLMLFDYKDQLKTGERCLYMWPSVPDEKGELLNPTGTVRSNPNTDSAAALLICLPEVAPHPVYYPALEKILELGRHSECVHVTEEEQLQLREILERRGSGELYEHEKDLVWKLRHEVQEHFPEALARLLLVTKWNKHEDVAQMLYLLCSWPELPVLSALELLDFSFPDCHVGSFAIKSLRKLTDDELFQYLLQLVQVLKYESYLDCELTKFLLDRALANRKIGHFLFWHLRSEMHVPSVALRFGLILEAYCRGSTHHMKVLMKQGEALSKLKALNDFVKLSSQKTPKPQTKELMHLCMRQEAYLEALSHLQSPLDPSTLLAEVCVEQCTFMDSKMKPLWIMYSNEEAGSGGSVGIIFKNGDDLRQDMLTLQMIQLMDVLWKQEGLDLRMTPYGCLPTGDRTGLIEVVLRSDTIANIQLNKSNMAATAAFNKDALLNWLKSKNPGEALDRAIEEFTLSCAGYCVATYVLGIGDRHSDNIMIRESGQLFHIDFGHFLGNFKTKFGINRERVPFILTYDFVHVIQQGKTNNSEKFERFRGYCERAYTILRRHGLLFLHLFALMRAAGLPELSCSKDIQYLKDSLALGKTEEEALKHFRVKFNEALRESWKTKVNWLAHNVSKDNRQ

MM1.S = assay: Antiproliferative activity against human MM1.S cells incubated for 48 hrs by resazurin dye based fluorescence micro plate reader analysis; format: functional, cell-based
MDA-MB-231 = assay: Antiproliferative activity against human MDA-MB-231 cells incubated for 48 hrs by resazurin dye based fluorescence micro plate reader analysis; format: functional, cell-based; settings: MDA-MB-231, 48 h
[5] = Cytotoxicity against human HL7702 cells incubated for 48 hrs by resazurin dye based fluorescence micro plate reader analysis; format: toxicity, cell-based; settings: HL7702 (L02) cells
CYP2B6 = CYP2B6 (Homo sapiens, UniProt P20813); assay: Inhibition of CYP2B6 in human liver microsomes using bupropion as substrate at 10 uM in presence of NADPH regenerating system by LC-MS/MS analysis relative to control; format: ADME, Microsome; settings: probe bupropion
CYP2B6, sequence (P20813 whole entry): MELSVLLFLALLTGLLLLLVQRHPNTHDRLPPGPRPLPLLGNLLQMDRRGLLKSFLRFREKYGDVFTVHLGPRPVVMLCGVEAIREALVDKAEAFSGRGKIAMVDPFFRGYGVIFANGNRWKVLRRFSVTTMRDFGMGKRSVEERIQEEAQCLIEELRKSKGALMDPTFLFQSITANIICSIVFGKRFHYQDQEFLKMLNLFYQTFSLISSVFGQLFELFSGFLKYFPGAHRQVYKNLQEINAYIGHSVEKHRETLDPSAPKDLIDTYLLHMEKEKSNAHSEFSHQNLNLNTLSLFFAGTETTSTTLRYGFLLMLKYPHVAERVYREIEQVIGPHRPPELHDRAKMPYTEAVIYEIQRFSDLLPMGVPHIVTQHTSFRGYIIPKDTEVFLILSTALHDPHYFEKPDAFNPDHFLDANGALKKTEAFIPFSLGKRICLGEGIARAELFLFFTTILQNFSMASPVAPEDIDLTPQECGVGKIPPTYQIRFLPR

CYP2D6 = CYP2D6 (Homo sapiens, UniProt P10635); assay: Inhibition of CYP2D6 in human liver microsomes using bufuralol as substrate at 10 uM in presence of NADPH regenerating system by LC-MS/MS analysis relative to control; format: ADME, Microsome; settings: probe bufuralol
CYP2D6, sequence (P10635 whole entry): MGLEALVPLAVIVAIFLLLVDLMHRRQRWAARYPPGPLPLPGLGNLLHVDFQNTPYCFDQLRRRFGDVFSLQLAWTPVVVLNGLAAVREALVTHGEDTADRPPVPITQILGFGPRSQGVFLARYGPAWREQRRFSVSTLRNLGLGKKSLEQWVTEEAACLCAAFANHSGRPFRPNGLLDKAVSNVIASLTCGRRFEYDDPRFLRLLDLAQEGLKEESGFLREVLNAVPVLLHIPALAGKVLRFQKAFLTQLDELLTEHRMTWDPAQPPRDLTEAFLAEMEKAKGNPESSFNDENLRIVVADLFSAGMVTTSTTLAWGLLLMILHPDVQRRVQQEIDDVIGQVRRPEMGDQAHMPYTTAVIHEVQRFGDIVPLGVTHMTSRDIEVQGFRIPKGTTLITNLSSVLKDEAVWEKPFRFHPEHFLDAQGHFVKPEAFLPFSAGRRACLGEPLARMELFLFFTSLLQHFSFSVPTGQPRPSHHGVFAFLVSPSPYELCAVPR

hERG = hERG (Homo sapiens, UniProt Q12809); assay: Inhibition of hERG transfected in CHO cells at 30 uM by manual patch-clamp assay relative to control; format: toxicity, cell-based; settings: CHO cells transfected with hERG
hERG, sequence (Q12809 whole entry): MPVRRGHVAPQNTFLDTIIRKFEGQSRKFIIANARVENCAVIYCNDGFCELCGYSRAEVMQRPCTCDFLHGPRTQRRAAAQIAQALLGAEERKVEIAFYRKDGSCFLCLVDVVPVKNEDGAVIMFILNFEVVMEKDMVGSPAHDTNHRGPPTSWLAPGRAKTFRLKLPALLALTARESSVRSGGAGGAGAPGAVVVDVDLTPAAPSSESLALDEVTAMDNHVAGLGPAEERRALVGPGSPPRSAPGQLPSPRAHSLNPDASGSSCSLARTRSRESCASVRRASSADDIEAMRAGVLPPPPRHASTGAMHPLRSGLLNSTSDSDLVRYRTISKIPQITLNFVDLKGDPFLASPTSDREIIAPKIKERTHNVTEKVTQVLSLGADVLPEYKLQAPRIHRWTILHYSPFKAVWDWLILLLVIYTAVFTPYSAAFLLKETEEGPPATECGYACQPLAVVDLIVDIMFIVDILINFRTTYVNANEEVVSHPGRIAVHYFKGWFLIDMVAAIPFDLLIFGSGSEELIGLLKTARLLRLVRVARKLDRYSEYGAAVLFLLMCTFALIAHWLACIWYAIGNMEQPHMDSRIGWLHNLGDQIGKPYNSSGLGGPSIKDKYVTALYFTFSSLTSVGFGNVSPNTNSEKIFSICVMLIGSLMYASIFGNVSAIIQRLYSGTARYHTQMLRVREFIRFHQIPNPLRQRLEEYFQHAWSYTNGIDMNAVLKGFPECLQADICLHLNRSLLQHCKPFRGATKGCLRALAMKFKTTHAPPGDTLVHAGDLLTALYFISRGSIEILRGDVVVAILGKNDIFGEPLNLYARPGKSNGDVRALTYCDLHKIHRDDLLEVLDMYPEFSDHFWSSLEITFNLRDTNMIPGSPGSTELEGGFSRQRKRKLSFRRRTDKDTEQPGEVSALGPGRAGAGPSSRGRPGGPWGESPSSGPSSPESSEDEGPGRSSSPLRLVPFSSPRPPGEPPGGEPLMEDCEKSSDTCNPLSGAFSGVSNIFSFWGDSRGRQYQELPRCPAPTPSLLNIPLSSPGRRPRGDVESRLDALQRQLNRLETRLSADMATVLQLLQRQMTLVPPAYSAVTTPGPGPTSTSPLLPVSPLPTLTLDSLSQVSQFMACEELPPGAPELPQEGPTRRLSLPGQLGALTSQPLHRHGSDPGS

[6] = Stability in human liver microsomes assessed as compound remaining at […] preincubated for 5 mins followed by NADPH addition and measured after 5 mins by LC-MS/MS analysis; format: ADME, Microsome; settings: time 10 min, read-out: Stability
[7] = Stability in rat liver microsomes assessed as compound remaining at 0.5 mM preincubated for 5 mins followed by NADPH addition and measured after 45 mins by LC-MS/MS analysis; format: ADME, Microsome; settings: time 50 min, read-out: Stability
[8] = Stability in mouse liver microsomes assessed as compound remaining at 0.5 mM preincubated for 5 mins followed by NADPH addition and measured immediately by LC-MS/MS analysis; format: ADME, Microsome; settings: read-out: Stability
[9] = Stability in mouse liver microsomes assessed as compound remaining at […] preincubated for 5 mins followed by NADPH addition and measured after 5 mins by LC-MS/MS analysis; format: ADME, Microsome; settings: time 10 min, read-out: Stability
[10] = Stability in mouse liver microsomes assessed as compound remaining at […] preincubated for 5 mins followed by NADPH addition and measured after 15 mins by LC-MS/MS analysis; format: ADME, Microsome; settings: time 20 min, read-out: Stability
[11] = Stability in mouse liver microsomes assessed as compound remaining at […] preincubated for 5 mins followed by NADPH addition and measured after 30 mins by LC-MS/MS analysis; format: ADME, Microsome; settings: time 35 min, read-out: Stability
[12] = Stability in mouse liver microsomes assessed as half-life at […] preincubated for 5 mins followed by NADPH addition and measured upto 45 mins by LC-MS/MS analysis; format: ADME, Microsome; settings: time < 50 min
[13] = C0 in ICR mouse at 1 mg/kg, iv measured after 24 hrs by LC-MS/MS analysis; format: ADME, organism-based; settings: in vivo
[14] = Half-life in ICR mouse at 1 mg/kg, iv measured after 24 hrs by LC-MS/MS analysis; format: ADME, organism-based; settings: in vivo
[15] = AUC (0 to infinity) in ICR mouse at 1 mg/kg, iv measured after 24 hrs by LC-MS/MS analysis; format: ADME, organism-based; settings: in vivo
[16] = MRT (0 to infinity) in ICR mouse at 1 mg/kg, iv measured after 24 hrs by LC-MS/MS analysis; format: ADME, organism-based; settings: in vivo
[17] = Volume of distribution at steady state in ICR mouse at 1 mg/kg, iv measured after 24 hrs by LC-MS/MS analysis; format: ADME, organism-based; settings: in vivo
JeKo-1 [18] = assay: Induction of apoptosis in human JeKo-1 cells assessed as viable cells at 0.25 uM incubated for 48 hrs by Annexin-V/FITC and PI staining based flow cytometric analysis (reference value: 94.1%); format: functional; settings: read-out: Activity
JeKo-1 [19] = assay: Induction of apoptosis in human JeKo-1 cells assessed as late apoptotic cells at 0.25 uM incubated for 48 hrs by Annexin-V/FITC and PI staining based flow cytometric analysis (reference value: 3.66%); format: functional
JeKo-1 [20] = assay: Induction of apoptosis in human JeKo-1 cells assessed as early apoptotic cells at 0.5 uM incubated for 48 hrs by Annexin-V/FITC and PI staining based flow cytometric analysis (reference value: […]); format: functional
JeKo-1 [21] = assay: Upregulation of tubulin acetylation in human JeKo-1 cells at 0.25 to 1 uM incubated for 24 hrs by Western blot analysis; format: functional, cell-based; settings: dose 0.25-1 µM

- IC50 [1]: 29.5 nM
- inhibition at 10 µM (CYP1A2): 2.52%
- IC50 [2]: 20.3 nM
- IC50 (Histone deacetylase 2): 443 nM
- IC50 (Histone deacetylase 3): 24.5 nM
- IC50 (Histone deacetylase 5): > 10000 nM
- IC50 (Histone deacetylase 7): > 10000 nM
- IC50 (Histone deacetylase 8): > 10000 nM
- IC50 [3]: > 10000 nM
- IC50 [4]: 206 nM
- IC50 (MM1.S): 2900 nM
- IC50 (MDA-MB-231): 1500 nM
- inhibition at 10 µM (CYP2B6): 35.6%
- inhibition at 10 µM (CYP2D6): 48.8%
- remaining at 5 min [6]: 83.8%
- remaining at 0.75 h [7]: 40.2%
- remaining at 0 min [8]: 100%
- remaining at 5 min [9]: 94%
- remaining at 0.25 h [10]: 65.8%
- remaining at 0.5 h [11]: 45%
- half-life [12]: 0.449 h
- C0 at 24 h [13]: 13700 ng/mL
- half-life [14]: 10 h
- AUC(0-inf) [15]: 2770 ng·h/mL
- MRT inf [16]: 2 h
- Vdss [17]: 0.719 L/kg
SMILES: COc1nc(-c2ccc(NC(=O)Nc3ccc(C(=O)NCCCCCC(=O)Nc4ccccc4N)cc3)cc2)nc(N2CCOCC2)n1
- IC50 at 48 h [5]: > 100000 nM
- inhibition at 30 µM (hERG): 15.2%
- viability at 0.25 µM (JeKo-1 [18]): 78.5%
- Activity (JeKo-1 [19]): 15.1%
- Activity (JeKo-1 [20]): 17.8%
- Activity (JeKo-1 [21]): inactive
